Source: publication PMC7318245, “Powering Artificial Enzymatic Cascades with Electrical Energy” (Angewandte Chemie (International Ed. in English), 2020)

Molecular target: T1, SH (O2-tolerant, NAD+-reducing hydrogenase, soluble hydrogenase) (Cupriavidus necator, UniProt P22317)
T1 construct: gene hoxF; purified; immobilised on Amberlite FP54; hydrogenase and diaphorase modules; with NAD-reducing hydrogenase HoxS subunit gamma; NAD-reducing hydrogenase HoxS subunit delta; NAD-reducing hydrogenase HoxS subunit beta; NAD-reducing hydrogenase subunit HoxI
T1 sequence (P22317 whole entry): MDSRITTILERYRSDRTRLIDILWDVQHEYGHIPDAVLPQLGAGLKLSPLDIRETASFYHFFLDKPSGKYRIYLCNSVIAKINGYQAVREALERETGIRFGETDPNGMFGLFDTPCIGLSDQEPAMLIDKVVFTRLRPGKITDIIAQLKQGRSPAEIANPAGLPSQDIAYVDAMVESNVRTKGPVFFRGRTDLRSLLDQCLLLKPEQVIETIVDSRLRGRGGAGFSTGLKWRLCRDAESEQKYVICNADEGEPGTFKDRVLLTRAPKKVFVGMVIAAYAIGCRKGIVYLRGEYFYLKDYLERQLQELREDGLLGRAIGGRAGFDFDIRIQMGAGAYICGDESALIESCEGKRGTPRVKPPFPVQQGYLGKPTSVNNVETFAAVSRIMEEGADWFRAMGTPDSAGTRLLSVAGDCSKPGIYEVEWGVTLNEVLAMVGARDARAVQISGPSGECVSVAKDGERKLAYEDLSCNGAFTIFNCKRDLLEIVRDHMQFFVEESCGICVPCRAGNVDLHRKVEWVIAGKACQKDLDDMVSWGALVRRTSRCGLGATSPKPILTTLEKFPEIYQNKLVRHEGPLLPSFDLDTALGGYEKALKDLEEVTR
T1 sequence (P22318 2-234 partner): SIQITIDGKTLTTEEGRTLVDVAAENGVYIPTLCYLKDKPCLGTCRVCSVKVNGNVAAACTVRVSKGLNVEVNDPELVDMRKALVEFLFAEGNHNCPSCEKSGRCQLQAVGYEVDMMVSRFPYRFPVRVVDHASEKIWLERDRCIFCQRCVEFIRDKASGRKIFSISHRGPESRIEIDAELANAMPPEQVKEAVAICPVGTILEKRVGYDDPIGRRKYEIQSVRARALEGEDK
T1 sequence (P22319 whole entry partner): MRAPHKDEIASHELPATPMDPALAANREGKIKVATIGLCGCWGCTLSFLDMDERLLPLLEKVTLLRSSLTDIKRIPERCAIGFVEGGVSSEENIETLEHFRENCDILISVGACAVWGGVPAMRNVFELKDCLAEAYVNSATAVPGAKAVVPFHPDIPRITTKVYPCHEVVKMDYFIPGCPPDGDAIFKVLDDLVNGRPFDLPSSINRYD
T1 sequence (P22320 2-464 partner): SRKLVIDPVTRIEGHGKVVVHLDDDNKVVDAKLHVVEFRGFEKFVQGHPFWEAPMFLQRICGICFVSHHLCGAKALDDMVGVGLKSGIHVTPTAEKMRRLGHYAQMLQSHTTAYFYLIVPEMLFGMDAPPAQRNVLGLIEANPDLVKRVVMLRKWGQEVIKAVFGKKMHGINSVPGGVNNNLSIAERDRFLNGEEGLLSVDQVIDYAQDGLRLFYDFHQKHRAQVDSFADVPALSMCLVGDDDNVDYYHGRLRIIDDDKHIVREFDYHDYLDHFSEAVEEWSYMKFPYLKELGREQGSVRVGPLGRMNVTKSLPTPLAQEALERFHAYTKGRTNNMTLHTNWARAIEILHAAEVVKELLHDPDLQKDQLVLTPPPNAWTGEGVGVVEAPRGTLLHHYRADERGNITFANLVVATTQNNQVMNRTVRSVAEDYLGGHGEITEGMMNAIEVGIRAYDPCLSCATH
Assay: on-line H2 consumption and NADH evolution
Type: biochemical
Conditions: immobilised enzyme in cascade; 2 mM NAD+, H2, Tris-HCl 50 mM pD 8.0, 22 °C

NC(=O)c1ccc[n+]([C@@H]2O[C@H](COP(=O)(O)OP(=O)(O)OC[C@H]3O[C@@H](n4cnc5c(N)ncnc54)[C@H](O)[C@@H]3O)[C@@H](O)[C@H]2O)c1 [NAD^+]
on-line H2 consumption and NADH evolution: consumption of H2 (A) and the evolution of NADH (C)
